Patent US20200325505A1, “FILAMENTOUS FUNGI CAPABLE OF PRODUCING VERY LONG CHAIN FATTY ACIDS” (UT-Battelle, LLC, priority 2019, published 2020)
Where two headings read alike, the source gives them in different places. Residues, ends and D or L forms follow the SMILES beside them.

Tested on: Mortierella elongata AG77
Experiment: Carbon source utilisation in Biolog 96-well plates, formazan formation after tetrazolium addition
Type: cell-based
Settings: for Metabolized: Metabolized = more formazan formation than a control containing no carbon source, observed visually at 2 h, 24 h, 148 h; for Carbon sources that Mortierella elongata AG77 can metabolize: summary of Table 3
Description: Two 300 mL volumes of growth medium comprising 1 g/L KH2PO4, 1 g/L MgSO4 7H2O, 0.1 g/L CaCl2, 0.02 g/L FeNaEDTA, 0.1 g/L NaCl, and either 1 g/L NH4NO3 or 20 g/L sucrose were prepared. Acidity was adjusted to 5.5 using NaOH and volumes of growth medium were autoclaved 30 min at 121° C. to sterilize. Aliquots of 200 μL of carbon-free medium or nitrogen-free medium were pipetted into each well of a set of 96-well plates previously prepared with lyophilized putative carbon or nitrogen sources (Biolog Inc., Hayward, Calif.). Inocula were prepared by perforating a culture of Mortierella elongata AG77 grown on 20 g/L potato dextrose agar with a 3 mm diameter cork borer and separating the surface mycelial mat from the solid growth medium using tweezers. Each well was inoculated with one inoculum. Cultures were incubated at 21° C. for 24 hours to allow metabolic changes to stabilize, and then 100 μL of 3 g/L tetrazolium chloride in water was added to each well. Formazan formation was observed visually at 2 h, 24 h, and 148 h.
Conclusions were based on rate and intensity of formazan formation using the 3-4,5-dimethylthiazol-2-yl)-2,5-diphenyltetrazolium bromide (MTT) assay. “Metabolized” indicates more formazan formation than a control containing no carbon source, and “Toxic” indicates less formazan formation than a control containing no carbon source. “Metabolized” and “Toxic” assignments are mutually exclusive. In this example, a compound may be “Metabolized” or “Toxic,” but not both.

[1] = compound as carbon source, Toxic = less formazan formation than a control containing no carbon source

SMILES	Toxic	Metabolized (compound as carbon source)	Carbon sources that Mortierella elongata AG77 can metabolize	Toxic [1]
O=C(O)/C=C/C(=O)O [Fumaric Acid]	no	yes	can metabolize	
OCC(O)CO [Glycerol]	no	yes	can metabolize	
O=C(O)CO [Glycolic Acid]		yes	can metabolize	no
NCC(=O)N[C@@H](CC(=O)O)C(=O)O [Glycyl-L-Aspartic Acid] (H-Gly-Asp-OH)		yes	can metabolize	no
NCC(=O)N1CCC[C@H]1C(=O)O [Glycyl-L-Proline] (H-Gly-Pro-OH)	no	no		
O=CC(=O)O [Glyoxylic Acid]		no		
C=C(CC(=O)O)C(=O)O [Itaconic Acid]		no		no
C[C@H](N)C(N)=O [L-Alaninamide]		yes	can metabolize	no
O=C[C@H](O)[C@@H](O)[C@@H](O)CO [L-Arabinose]	no	no		
OC[C@H](O)C(O)[C@@H](O)CO [L-Arabitol]		no		no
C[C@H](O)[C@@H](O)[C@@H](O)[C@H](O)C=O [L-Fucose]		no		no
O=C1O[C@H]([C@@H](O)CO)[C@@H](O)[C@@H]1O [L-Galactonic Acid-γ-Lactone]		yes	can metabolize	no
O=C[C@@H](O)[C@H](O)[C@@H](O)[C@@H](O)CO [L-Glucose]	no	no		
C[C@H](O)C(=O)O [L-Lactic Acid]		yes	can metabolize	no
O=C[C@H](O)[C@H](O)[C@@H](O)CO [L-Lyxose]	no	no		
O=C(O)C[C@H](O)C(=O)O [L-Malic Acid]		no		no
C[C@H](O)[C@H](O)[C@@H](O)[C@@H](O)C=O [L-Rhamnose]		no		no
O=C(CO)[C@@H](O)[C@H](O)[C@@H](O)CO [L-Sorbose]	no	no		
O=C(O)[C@H](O)[C@@H](O)C(=O)O [L-Tartaric Acid]		no		
OC[C@@H](O)[C@@H](O[C@@H]1O[C@H](CO)[C@H](O)[C@H](O)[C@H]1O)[C@H](O)[C@@H](O)CO [Lactitol]	no	no		
O=C(O)CC(=O)O [Malonic Acid]		no		
OC[C@@H](O)[C@@H](O[C@H]1O[C@H](CO)[C@@H](O)[C@H](O)[C@H]1O)[C@H](O)[C@@H](O)CO [Maltitol]		no		no
OC[C@H]1O[C@H](O[C@H]2[C@H](O)[C@@H](O)[C@H](O)O[C@@H]2CO)[C@H](O)[C@@H](O)[C@@H]1O [Maltose]		yes	can metabolize	
O=C(O)[C@H](O)[C@@H](O)[C@H](O)[C@H](O)CO[C@H]1O[C@H](CO)[C@H](O)[C@H](O)[C@H]1O [Melibionic Acid]		no		no
COC(=O)C(C)=O [Methyl Pyruvate]		yes	can metabolize	no

SMILES	Toxic	Metabolized (compound as carbon source)	Carbon sources that Mortierella elongata AG77 can metabolize	Toxic [1]
COC(=O)CCC(=O)O [Mono Methyl Succinate]	no			
O=C(O)[C@@H](O)[C@H](O)[C@H](O)[C@@H](O)C(=O)O [Mucic Acid]	no	no		
CC(=O)N[C@@H](CO)[C@@H](O)[C@H](O)[C@H](O)CO [N-Acetyl-D-Glucosaminitol]		no		no
CC(=O)N[C@H]1[C@H]([C@H](O)[C@H](O)CO)OC(O)(C(=O)O)C[C@@H]1O (some centres unmarked) [N-Acetyl-Neuraminic Acid]		yes	can metabolize	no
CC(=O)N[C@H]1[C@@H](O)[C@H](O)[C@@H](CO)O[C@H]1O [N-Acetyl-β-D-Mannosamine]		yes	can metabolize	no
O=C(O)C(=O)O [Oxalic Acid]		no		
O=C(O)C(=O)C(C(=O)O)C(O)C(=O)O (centres unmarked) [Oxalomalic Acid]	no	no		
OC[C@H]1O[C@H](OC[C@H]2OC(O)(CO)[C@@H](O)[C@@H]2O)[C@H](O)[C@@H](O)[C@@H]1O (some centres unmarked) [Palatinose]		yes	can metabolize	no
CCC(=O)O [Propionic Acid]	no	no		
CC(=O)C(=O)O [Pyruvic Acid]		no		no
O=C(O)[C@]1(O)C[C@@H](O)[C@@H](O)[C@H](O)C1 [Quinic Acid]	no	no		
OCc1ccccc1O[C@@H]1O[C@H](CO)[C@@H](O)[C@H](O)[C@H]1O [Salicin]	no	yes	can metabolize	
O=C(O)CCCCCCCCC(=O)O [Sebacic Acid]	no	no		
CCC(C)N (centres unmarked) [Sec-Butylamine]		no		no
OC[C@@]12OC[C@@H](O1)[C@@H](O)[C@@H](O)[C@@H]2O [Sedoheptulosan]		no		no
C/C=C/C=C/C(=O)O [Sorbic Acid]	no	no		
OC[C@H]1O[C@H](OC[C@H]2O[C@H](OC[C@H]3O[C@H](O[C@]4(CO)O[C@H](CO)[C@@H](O)[C@@H]4O)[C@H](O)[C@@H](O)[C@@H]3O)[C@H](O)[C@@H](O)[C@H]2O)[C@H](O)[C@@H](O)[C@H]1O [Stachyose]		no		no
NC(=O)CCC(=O)O [Succinamic Acid]		no		no
O=C(O)CCC(=O)O [Succinic Acid]	no	no		
OC[C@H]1O[C@@](CO)(O[C@H]2O[C@H](CO)[C@@H](O)[C@H](O)[C@H]2O)[C@@H](O)[C@@H]1O [Sucrose]	no	no		
O=C(O)CC(CC(=O)O)C(=O)O [Tricarballylic Acid]	no	yes	can metabolize	
O=C(CO)[C@@H](O[C@H]1O[C@H](CO)[C@@H](O)[C@H](O)[C@H]1O)[C@H](O)[C@H](O)CO [Turanose]		no		no
OC[C@@H](O)[C@H](O)[C@@H](O)CO [Xylitol]	no	no		
CO[C@H]1O[C@H](CO)[C@@H](O)[C@H](O)[C@H]1O [a-Methyl-D-Glucoside]		yes	can metabolize	no
